Assay results published in patent publication US20250099407A1, “2-AMINO BENZOPHENONE DERIVATIVES FOR TARGETED FERROPTOSIS INDUCTION IN CANCER THERAPY” (INDIAN INSTITUTE OF TECHNOLOGY KANPUR, priority 2023, published 2025).
Where two headings read alike, the source gives them in different places.

Assays:
Huh-7 cells = test: Cell viability, luminescence-based CellTiter-Glo assay, Huh-7 cells; conditions: Homo sapiens, Huh-7, Huh-7 cells
Procedure: The viability of Huh-7 cells was recorded using a luminescence-based CellTiter-Glo® assay. The screening concentration of the molecules were 10 μM with or without Fer-1 (10 μM) in DMEM media (>0.1% DMSO as control).
Ferroptosis is a unique form of cell death mechanism mediated by the accumulation of lipid peroxides in cells which is distinct from healthy cells' apoptosis, a programmed […] route. We aimed to exploit the induction of ferroptosis in cancer cells using covalent small molecules as a potential strategy for cancer therapeutic development. […] We used various amide bond formation chemistry to construct the library members and these molecules are well characterized by various spectroscopic and mass spectrometry techniques. Once confirmed, these thiol reactive library members were screened in a cancer cell viability assay in combination with ferrostatin-1 (Fer-1), a ferroptosis inhibitor as depicted in FIG. 11. […] We have screened a total of ˜50 electrophilic small molecules to prevent the proliferation of hepatocellular carcinoma (Huh-7 cells) in combination with and without Fer-1. From our initial screening, we identified haloacetamides of 2-aminoalkylbenzophenone as potential ferroptosis inducers as depicted in FIG. 11.
(§1) The viability of screened cancer cells was recorded using a luminescence-based CellTiter-Glo® assay for the ATP quantification. The screening concentration of the molecule ranged from 100/10 μM to 45/4.5 nM with an 8-point-3-fold dilution series in DMEM media (>0.1% DMSO as control). Each experiment was conducted in more than two biological replicates with three technical replicates. The error bar is a representation of standard deviation among the technical replicates.
The viability of screened cancer cells was recorded using a luminescence-based CellTiter-Glo® assay for the ATP quantification. The screening concentration of IITK3002 ranged from 10 μM to 4.5 nM with an 8-point-3-fold dilution series in DMEM media (>0.1% DMSO as control). Each experiment was conducted in more than two biological replicates with three technical replicates. The error bar is a representation of standard deviation among the technical replicates. […]
a. Electrophilic Warhead Optimization: Once we identified 2-benzoylphenyl-a-haloacetamide as the lead scaffold, we have investigated the structure-activity-relationship analysis to precisely capture the effect of various chemical handles of the scaffold and use the knowledge to improve the overall potency and selectivity of this molecule to prevent cancer cell proliferation. First, we changed the haloacetamide electrophilic unit with various other electrophiles with a characteristic high, moderate, and weak reactivity with thiols when compared to chloroacetamide. Therefore, we opted vinylsulfonamide (highly reactivity), acrylamide (moderate reactivity), and phenoxyacetamides (weak reactivity warheads) for incorporation in the place of haloacetamide warhead of the top hit scaffold. Once synthesized, these molecules were evaluated to assess their antiproliferative potency against Huh-7 cells (Table 2). As expected, the introduction of weakly reactive electrophilic warheads, phenoxyactamides, completely lost the activity against Huh-7 cells. […] Perhaps, the secondary interactions of the electrophilic warhead with the target proteins might play additional roles. Therefore, we shifted our focus to optimize the rest of the core scaffold for further SAR analysis. b. Role of N-Substitutions: Next, we synthesized the NH-derivative of haloacetamides to capture the importance of N-alkylation on the activity of our hit molecule. […] Perhaps the hydrogen bonding induced planarity around the warhead influences the molecules' weakened potency. Conversely, the additional flexibility in the lead molecule (tertiary amide) might contribute to the strong antiproliferative activity of the hit molecule. […]

U2OS = test: Cell viability, CellTiter-Glo assay, U2OS; type: cell-based; conditions: Homo sapiens
Procedure: as §1
The viability of screened cancer cells was recorded using a luminescence-based CellTiter-Glo® assay for the ATP quantification. The screening concentration of IITK3002 ranged from 10 μM to 4.5 nM with an 8-point-3-fold dilution series in DMEM media (>0.1% DMSO as control). Each experiment was conducted in more than two biological replicates with three technical replicates. The error bar is a representation of standard deviation among the technical replicates.
a. […] In parallel, we have also synthesized the bromoacetamide (IITK3002) version of the lead molecules which is slightly more reactive with thiol nucleophiles when compared to chlorooacetamide warheads as depicted in FIG. 13. […] In addition, we also evaluated the molecules' antiproliferative potency against a panel of twelve different cancer phenotypes. The set of cancer cell lines included liver, breast, colon, myeloma, bone, blood, skin, brain and prostate lineages (FIG. 2, 3, Table 1).

A549 = test: Cell viability, A549; type: cell-based; conditions: Homo sapiens
[1] = cell viability, read-out: EC50 Huh-7

Row | SMILES | EC50 (Huh-7 cells; [1]) | further results
1 | CN(C(=O)COc1c(F)c(F)c(F)c(F)c1F)c1ccccc1C(=O)c1ccccc1 [IITK3007, N-(2-benzoylphenyl)-N-methyl-2-(perfluorophenoxy)acetamide] | > 20000 nM | 
2 | O=C(CBr)Nc1ccccc1C(=O)c1ccccc1 [IITK3013, N-(2-benzoylphenyl)-2-bromoacetamide] |  | EC50 (U2OS): 1520 nM
3 | C=CCN(C(=O)CCl)c1ccccc1C(=O)c1ccccc1 [IITK3018, N-allyl-N-(2-benzoylphenyl)-2-chloroacetamide] |  | EC50 (U2OS): 600 nM; EC50 (A549): 2400 nM
4 | C=CCN(C(=O)CBr)c1ccccc1C(=O)c1ccccc1 [IITK3019, N-allyl-N-(2-benzoylphenyl)-2-bromoacetamide] |  | EC50 (U2OS): 30 nM; EC50 (A549): 300 nM
5 | C=CCN(C(=O)COc1c(F)c(F)c(F)c(F)c1F)c1ccccc1C(=O)c1ccccc1 [IITK3022, N-allyl-N-(2-benzoylphenyl)-2-(perfluorophenoxy)acetamide] |  | EC50 (U2OS): 1450 nM; EC50 (A549): 3370 nM
6 | C=CCN(C(=O)C=C)c1ccccc1C(=O)c1ccccc1 [IITK3026, N-allyl-N-(2-benzoylphenyl)acrylamide] |  | EC50 (A549): 32800 nM
7 | C=CCN(c1ccccc1C(=O)c1ccccc1)S(=O)(=O)C=C [IITK3027, N-allyl-N-(2-benzoylphenyl)ethenesulfonamide] |  | EC50 (U2OS): 1220 nM; EC50 (A549): 1920 nM
8 | C#CCN(C(=O)COc1ccc(C(C)(C)C)cc1)c1ccccc1C(=O)c1ccccc1 [IITK3032, N-(2-benzoylphenyl)-2-(4-(tert-butyl)phenoxy)-N-(prop-2-yn-1-yl)acetamide] | > 20000 nM | 
9 | C#CCOC(=O)Nc1ccc(N(C)C(=O)CCl)c(C(=O)c2ccccc2)c1 [IITK3052, prop-2-yn-1-yl (3-benzoyl-4-(2-chloro-N-methylacetamido)phenyl)carbamate] | 32800 nM | EC50 (U2OS): 2920 nM; EC50 (A549): 4180 nM
10 | C#CCOC(=O)Nc1ccc(N(C)C(=O)CBr)c(C(=O)c2ccccc2)c1 [IITK3053, prop-2-yn-1-yl (3-benzoyl-4-(2-bromo-N-methylacetamido)phenyl)carbamate] | 11700 nM | EC50 (U2OS): 770 nM; EC50 (A549): 1540 nM
11 | CN(C(=O)CCl)c1ccccc1C(=O)c1ccc(-c2ccccc2)cc1 [IITK3055, N-(2-([1,1′-biphenyl]-4-carbonyl)phenyl)-2-chloro-N-methylacetamide] | 2 nM | EC50 (Huh-7 cells; antiproliferative activity, read-out: EC50 in Huh-7 cells): 2 nM
12 | CN(C(=O)CBr)c1ccccc1C(=O)c1ccc(-c2ccccc2)cc1 [IITK3056, N-(2-([1,1′-biphenyl]-4-carbonyl)phenyl)-2-bromo-N-methylacetamide] | 13 nM | 
13 | Cc1ccc(-c2ccc(C(=O)c3ccccc3N(C)C(=O)CBr)cc2)cc1 [IITK3057, 2-bromo-N-methyl-N-(2-(4′-methyl-[1,1′-biphenyl]-4-carbonyl)phenyl)acetamide] | 18 nM | 
14 | CN(C(=O)CBr)c1ccccc1C(=O)c1ccc(-c2ccc(C=O)cc2)cc1 [IITK3059, 2-bromo-N-(2-(4′-formyl-[1,1′-biphenyl]-4-carbonyl)phenyl)-N-methylacetamide] | 79 nM | 
15 | COc1ccc(-c2ccc(C(=O)c3ccccc3N(C)C(=O)CBr)cc2)cc1 [IITK3065, 2-bromo-N-(2-(4′-methoxy-[1,1′-biphenyl]-4-carbonyl)phenyl)-N-methylacetamide] | 16 nM | 
16 | C#CCN(C(=O)CBr)c1ccccc1C(=O)c1ccc(-c2ccccc2)cc1 [IITK3071, N-(2-([1,1′-biphenyl]-4-carbonyl)phenyl)-2-bromo-N-(prop-2-yn-1-yl)acetamide] | < 100 nM | 
17 | C#CCN(C(=O)CCl)c1ccccc1C(=O)c1ccc(-c2ccccc2)cc1 [IITK3072, N-(2-([1,1′-biphenyl]-4-carbonyl)phenyl)-2-chloro-N-(prop-2-yn-1-yl)acetamide] | > 138 nM | 
18 | CN(C(=O)CCl)c1ccc([N+](=O)[O-])cc1C(=O)c1ccccc1 [IITK3073, N-(2-benzoyl-4-nitrophenyl)-2-chloro-N-methylacetamide] | > 20000 nM | 

Second part, led by results:

Row | EC50 (Huh-7 cells; [1]) | SMILES | further results
19 | > 20000 nM | O=C(COc1ccccc1)Nc1ccccc1C(=O)c1ccccc1 [IITK3014, N-(2-benzoylphenyl)-2-phenoxyacetamide] | EC50 (U2OS): > 20000 nM
20 | > 100000 nM | C=CCN(C(=O)COc1ccc([N+](=O)[O-])cc1)c1ccccc1C(=O)c1ccccc1 [IITK3025, N-allyl-N-(2-benzoylphenyl)-2-(4-nitrophenoxy)acetamide] | 
21 | > 20000 nM | C#CCN(C(=O)COc1c(F)c(F)c(F)c(F)c1F)c1ccccc1C(=O)c1ccccc1 [IITK3031, N-(2-benzoylphenyl)-2-(perfluorophenoxy)-N-(prop-2-yn-1-yl)acetamide] | 
22 | 117 nM | CN(C(=O)CCl)c1ccccc1C(=O)c1ccc(-c2ccc(C=O)cc2)cc1 [IITK3058, 2-chloro-N-(2-(4′-formyl-[1,1′-biphenyl]-4-carbonyl)phenyl)-N-methylacetamide] | 
23 | 26 nM | CN(C(=O)CCl)c1ccccc1C(=O)c1ccc(-c2ccc(C#N)cc2)cc1 [IITK3060, 2-chloro-N-(2-(4′-cyano-[1,1′-biphenyl]-4-carbonyl)phenyl)-N-methylacetamide] | 
24 | 4820 nM | CN(C(=O)CBr)c1ccccc1C(=O)c1ccc(-c2ccc(C#N)cc2)cc1 [IITK3061, 2-bromo-N-(2-(4′-cyano-[1,1′-biphenyl]-4-carbonyl)phenyl)-N-methylacetamide] | 
25 | 36 nM | CN(C(=O)CCl)c1ccccc1C(=O)c1ccc(-c2cccc(Oc3ccccc3)c2)cc1 [IITK3062, 2-chloro-N-methyl-N-(2-(3′-phenoxy-[1,1′-biphenyl]-4-carbonyl)phenyl)acetamide] | 
26 | 24.5 nM | CN(C(=O)CBr)c1ccccc1C(=O)c1ccc(-c2cccc(Oc3ccccc3)c2)cc1 [IITK3063, 2-bromo-N-methyl-N-(2-(3′-phenoxy-[1,1′-biphenyl]-4-carbonyl)phenyl)acetamide] | 
27 | 19 nM | COc1ccc(-c2ccc(C(=O)c3ccccc3N(C)C(=O)CCl)cc2)cc1 [IITK3064, 2-chloro-N-(2-(4′-methoxy-[1,1′-biphenyl]-4-carbonyl)phenyl)-N-methylacetamide] | 
28 | 8.83 nM | CN(C(=O)CCl)c1ccccc1C(=O)c1ccc(-c2ccc(F)cc2F)cc1 [IITK3066, 2-chloro-N-(2-(2′,4′-difluoro-[1,1′-biphenyl]-4-carbonyl)phenyl)-N-methylacetamide] | 
29 | 12.1 nM | CN(C(=O)CBr)c1ccccc1C(=O)c1ccc(-c2ccc(F)cc2F)cc1 [IITK3067, 2-bromo-N-(2-(2′,4′-difluoro-[1,1′-biphenyl]-4-carbonyl)phenyl)-N-methylacetamide] | 
30 | 3.06 nM | CN(C(=O)CCl)c1ccccc1C(=O)c1ccc(-c2cccc([N+](=O)[O-])c2)cc1 [IITK3068, 2-chloro-N-methyl-N-(2-(3′-nitro-[1,1′-biphenyl]-4-carbonyl)phenyl)acetamide] | 
31 | 3.5 nM | CN(C(=O)CBr)c1ccccc1C(=O)c1ccc(-c2cccc([N+](=O)[O-])c2)cc1 [IITK3069, 2-bromo-N-methyl-N-(2-(3′-nitro-[1,1′-biphenyl]-4-carbonyl)phenyl)acetamide] | 
32 | 8220 nM | C=CS(=O)(=O)N(C)c1ccccc1C(=O)c1ccc(-c2ccccc2)cc1 [IITK3070, N-(2-([1,1′-biphenyl]-4-carbonyl)phenyl)-N-methylethenesulfonamide] | 
